Entries after “also recorded” stand apart in the source; their conditions may differ.
Legend:
[1] = humans; cited from earlier work
[2] = In vitro release profile, USP type 2 (paddle) dissolution; format: physicochemical; details: USP II Paddle, 0.1N HCl
Description: Compositions containing an aminoadamantane and levodopa/carbidopa are analyzed for release of the aminoadamantane and levodopa/carbidopa, according to the USP type 2 apparatus at a speed of 50 rpm. The dissolution media used include water, 0.1N HCl, or 0.1N HCl adjusted to pH 6.8 at 2 hours with phosphate buffer. The dissolution medium is equilibrated to 37±0.5° C.
The USP reference assay method for amantadine is used to measure the fraction of memantine released from the compositions prepared herein. Briefly, 0.6 mL sample (from the dissolution apparatus at a given time point) is placed into a 15 mL culture tube. 1.6 mL 0.1% Bromocresol Purple (in acetic acid) is added and vortexed for five seconds. The mixture is allowed to stand for approximately five minutes. 3 mL Chloroform is added and vortexed for five seconds. The solution is next centrifuged (speed […]) for five minutes. The top layer is removed with a disposable pipette. A sample is drawn into 1 cm flow cell and the absorbance is measured at 408 nm at 37° C. and compared against a standard curve prepared with known quantities of the same aminoadamantane. The quantity of determined is plotted against the dissolution time for the sample.
The USP reference assay method for levodopa is used to measure the fraction of levodopa released from the compositions prepared herein. Briefly, 0.5 ml samples from the dissolution apparatus removed at various times are assayed by liquid chromatography. The chromatograph is equipped with a 280 nm detector and a 3.9 mm×30 cm column containing packing Ll. The mobile phase is 0.09 N sodium phosphate, 1 mM sodium 1-decanesulfonate, pH 2.8. With the flow rate adjusted to about 2 mL per minute, the levodopa elutes in about 4 minutes and carbidopa elutes in about 11 minutes. From the saved dissolution samples, a 0.02 ml aliquot is injected into the chromatograph and the absorbance is measure and compared to standard to determine concentration & quantity. The quantity dissolved is then plotted against the dissolution time for the sample.
The cumulative fraction is the amount of drug substance released from the formulation matrix to the serum or gut environment (e.g., U.S. Pat. No. 4,839,177 or 5,326,570) or as measured with a USP II Paddle system using 0.1N HCl as the dissolution medium.

[3] = Estimated amantadine concentration in squirrel monkeys; format: in vivo, squirrel monkey; details: amantadine raised from 1 mg/kg to 45 mg/kg
Description: Briefly, squirrel monkeys (N=4) were lesioned with MPTP according to the protocol of Di Monte et al. (Mov. Disord. 15: 459-66 (2000)). […] Levodopa treatment at approximately 15 mg/kg (with 1.5 mg/kg carbidopa) mg/kg b.i.d. commenced a baseline UPDRS and dyskinesia measurement was established. […] We hypothesize that this translates into a potential 40% reduction in levodopa required to maintain UPDRS.

Row | Compound | Dose Dependent Toxicity [1] | cum. fraction released ([2]; Time 0, amantadine and levodopa/carbidopa combination) | cum. fraction released ([2]; Time 0.5) | cum. fraction released ([2]; Time 1.0) | cum. fraction released ([2]; Time 2.0) | cum. fraction released ([2]; Time 4.0) | cum. fraction released ([2]; Time 8.0) | cum. fraction released ([2]; Time 12.0) | estimated concentration [3]
1 | CC12CC3CC(C)(C1)CC(N)(C3)C2 [Memantine, 1-amino-3,5-dimethyladamantane] | Dose escalation; also recorded: hallucination |  |  |  |  |  |  |  | 
2 | NC12CC3CC(CC(C3)C1)C2 [Amantadine, 1-amino-adamantane] |  | 0.00 | 0.10 | 0.20 | 0.35 | 0.60 | 0.90 | 0.98 | ~3 μm
3 | CC(N)C12CC3CC(CC(C3)C1)C2 (stereo not shown) [Rimantadine, 1-(1-aminoethyl)adamantane] | Insomnia |  |  |  |  |  |  |  | 

From US8895617B1, “Composition and method for treating neurological disease” (Adamas Pharmaceuticals, Inc., priority 2004, dated 2014)
